Reference: patent US20240099298A1, “BIOINSECTICIDAL COMPOSITIONS CONTAINING MONOTERPENES AND METHODS OF USE THEREOF” (priority 2017, published 2024)
Converted amounts (≈) assume the structure as drawn.

Assays:
[1] = test system: Aedes aegypti (Linnaeus) (mosquito); conditions: adult mosquito, exposed 30 minutes, mortality in 24 hours
From the text: (§1) Median Lethal Concentration Tests. […] The species tested included Thrips (M. usitatus), spider mite (T. cinnabarinus), melon fly (B. cucuribitae), cockroach (B. lateralis), housefly (M. domestica), mosquito (A. aegypti), parasitic wasp (T. chilonis) and fruit fly (Drosophila melanogaster). After being exposed to the test chemicals for one hour, adult Thrips, spider mites, and roaches were transferred to another flask. In addition to fresh water, adult Thrips, spider mites, and roaches were then respectively fed with cowpea, fresh blade of eggplant, and peanut oil via filter. […] Mortality of melon fly was observed after three hours of exposure.

[2] = test system: Bactrocera cucuribitae (Coquillett) (melon fly); conditions: melon fly
From the text: as §1

[3] = test system: Blatta lateralis (Walker) (cockroach); conditions: cockroach second instar nymphs, exposed one hour
From the text: as §1

[4] = test system: Musca domestica (Linnaeus) (housefly); conditions: adult housefly, exposed one hour, mortality in 24 hours
From the text: as §1

[5] = test system: Tetranychus cinnabarinus (Boisduval) (spider mites); conditions: spider mites, exposed one hour
From the text: as §1

[6] = test system: H. picinus (Nitidulid beetle); assay: Median lethal time (LT50) test, Nitidulid beetle; format: in vivo, Haptoncus picinus
From the text: (§2) All treatments and controls were in triplicate.
(§3) Toxicity of Monoterpenes as Fumigants. […] Therefore, to determine how fast the monoterpenes act as fumigants, it was necessary to determine their LT50 values for the target organisms.

[7] = test system: M. domestica (housefly); assay: Median lethal time (LT50) test, housefly; format: in vivo, Musca domestica
From the text: as §2, §3

[8] = test system: Musca domestica (housefly); assay: Median knockdown concentration (KC50) test, housefly; format: in vivo; conditions: Musca domestica
From the text: as §2
Knockdown Activity of Monoterpenes.

[9] = test system: T. chilonis (parasitic wasp); conditions: non-target parasitic wasp, mortality after 15 minutes of exposure
From the text: (§4) Insect Egg Parasitic Wasp (Natural Enemy). […] Both species were purchased from a commercial source. One- to two-day-old adults (after eclosion) were used for fumigation tests.
as §1

[10] = test system: A. japonicus (parasitic wasp); assay: Median lethal time (LT50) test, parasitic wasp (natural enemy); conditions: non-target parasitic wasp
Method: as §4
Median Lethal Time (LT50) and Median Knockdown Concentration (KC50) Tests. Five species of adult insects or natural enemies were tested for LT50 values including melon fly (B. cucuribitae), red flour beetle (T. castaneum), Nitidulidae beetle (H. picinus), parasitic wasp (A. japonicus) and housefly (M. domestica). For each treatment and control, 20 insects at the developmental stages described above were placed individually without food in a 1-L wide-mouth glass bottle (height 19.5 cm, bottom diameter 10.5 cm, mouth i.d. 5.5 cm) containing pieces of tissue paper. […] Five different concentrations of the test chemicals were placed on pieces of cellulose-based qualitative filter paper. Each of the filter papers was placed in a bottle to have 5 appropriate concentrations in serial dilutions. DDVP was the positive control, and no chemical treatments were the negative control. All treatments and controls were in triplicate. Mortality was observed periodically in a 10-30 minute interval for 2 days or until all insects died. The death was defined as no movement when the insects were touched.

[11] = biological target: recombinant gamma-aminobutyric acid receptor-associated protein (rGABARAP) (Frankliniella occidentalis, UniProt A0A6J1T1Q2); assay: Isothermal titration calorimetry (ITC) binding to rGABARAP; conditions: 25° C., pH 7.4
Sequence of recombinant gamma-aminobutyric acid receptor-associated protein (rGABARAP) (A0A6J1T1Q2 1-118): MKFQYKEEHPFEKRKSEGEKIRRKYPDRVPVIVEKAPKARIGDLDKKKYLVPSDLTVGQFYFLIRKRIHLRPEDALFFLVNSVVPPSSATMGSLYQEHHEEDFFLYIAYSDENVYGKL
Method: Preparation of recombinant GABARAP (rGABARAP) protein. RNA was extracted from F. occidentalis and cDNA was then synthesized. GABARAP (GenBank accession No. LOC113211372) was obtained after PCR amplification (Stafford-Banks, et al. (2014) Plos One 9:e94447).
(§5) The isothermal titration thermal binding measurements were performed with an ITC-200 calorimeter (GE Healthcare, Boston, MA) at 25° C. in a buffer containing 50 mM Tris-HCl and 100 mM NaCl (pH 7.4). […] The MicroCal Origin 7.0 software system was used for data processing. The first run was a pre-run and was excluded from the final data. The amount of protein in the sample pool was constant. […] The experimental bimolecular interaction data from the 18 drops were used to calculate the dissociation constant. The dissociation constant […] was calculated as 1/K (Li, et al. (2018) RSC Advances 8:18952-18958).

[12] = biological target: T1, rGABARAP^Y174A (Frankliniella occidentalis, UniProt A0A6J1T1Q2); assay: MST binding to rGABARAP mutant; conditions: read-out: Kd value, MST
T1 sequence (A0A6J1T1Q2 entry or part of it, stated change not applied): as the sequence (A0A6J1T1Q2 1-118) above
Method: Interaction between ME and rGABARAP. A Nano Temper Monolith NT.115 MST system (Nano Temper, Munich, Germany) was used to assess the binding affinities between the target compounds and rGABARAP according to the published procedures (Zan, et al. (2020) Journal of Agricultural and Food Chemistry 68:6280-6285). Spinosyn A was used as a chemical positive control. Spinosyn A (≥1 nM) can trigger a change of the Cl^− current of insect neuron GABAAR, which is considered to be an insecticidal action mechanism of spinosyn A (Watson (2001) Pesticide Biochemistry and Physiology 71:20-28). Ovalbumin (OVA) (Sangon Biotech, Shanghai, China) is a control protein consisting of 385 amino acid residues. The interaction between OVA and ME was used as a protein control experiment (Huntington, et al. (1995) Protein Science 4:613-621).
(§6) Preparation of rGABARAP Mutant and Interaction Between ME and rGABARAP Mutant. […] DNAman was used to convert the nucleic acid sequence into an amino acid sequence and find the Y174 site. Y174 was mutated to A174. The rGABARAP mutant gene loaded into the pMCSG19 vector and the His tags at both ends of the sequence were retained to construct a prokaryotic expression plasmid. The carrier contained a maltose binding protein (MBP) tag that was not cut for verification. However, MBP and ME were used as treatment controls. The mutant plasmid was constructed in Sangon Biotech (Shanghai, China). The protein expression, purification, and desalting procedures of rGABARAP^Y174A mutant and rGABARAP were the same. Subsequently, the binding kinetics of ME and rGABARAP^Y174A were tested by MST and ITC.

[13] = biological target: T1, rGABARAP^Y174A; assay: ITC binding to rGABARAP mutant; conditions: read-out: Kd value, ITC
Method: as §5, §6

[14] = T 22-25 °C; cited from earlier work

Q: With `C=CC(C)(O)CCC=C(C)C` (stereo not drawn) [Linalool, 3,7-dimethylocta-1,6-dien-3-o1] as the compound, how does the “LC50 (fiducial limits)” value [1] read?
A: >243 mg/L

Q: And the “LC90 (fiducial limits)” value [1]?
A: >243 mg/L

Q: And the “LC50 (fiducial limits)” value [2]?
A: >243 mg/L

Q: What about the “LC90 (fiducial limits)” value [2] of the same compound?
A: >243 mg/L

Q: And the “LC50 (fiducial limits)” value [3]?
A: 345 mg/L (≈ 2240 µM)

Q: What about the “LC90 (fiducial limits)” value [3] of the same compound?
A: 1700 mg/L (≈ 11000 µM)

Q: And the “LC50 (fiducial limits)” value [4]?
A: 30.6 mg/L (≈ 198 µM)

Q: And the “LC90 (fiducial limits)” value [4]?
A: 176 mg/L (≈ 1140 µM)

Q: And the “LC50 (fiducial limits)” value [5]?
A: 550 mg/L (≈ 3570 µM)

Q: What about the “LC90 (fiducial limits)” value [5] of the same compound?
A: 4330 mg/L (≈ 28100 µM)

Q: What about the “LT50 (fiducial limits)” value [6] of the same compound?
A: 1.58 h

Q: And the “LT50 (fiducial limits)” value [7]?
A: 1.28 h

Q: And the “KC50 (fiducial limits)” value ([8]; 20 Minutes)?
A: >243 µg/mL

Q: What about the “KC50 (fiducial limits)” value ([8]; 30 Minutes) of the same compound?
A: 192 µg/mL

Q: What about the “LC50 (fiducial limits) against T. chilonis” value [9] of the same compound?
A: 2.88 mg/L (≈ 18.7 µM)

Q: What about the “LC90 (fiducial limits) against T. chilonis” value [9] of the same compound?
A: 6.24 mg/L (≈ 40.5 µM)

Q: And the “LT50 (fiducial limits) against A. japonicus” value [10]?
A: 0.788 (0.71-0.86) hour

Q: What about the Kd [11] of the same compound?
A: 6.89 µM

Q: What about the Kd [12] of the same compound?
A: 16.3 ± 6.79 µM

Q: And the Kd [13]?
A: 8.92 µM

Q: And the “Vp (Pa)/T (° C.)” value [14]?
A: 21.28/22-25 Pa
